Measurements from patent US10034886B2, “GLP-1 receptor modulators” (Celgene International II SÀRL, priority 2014, dated 2018).
Where two headings read alike, the source gives them in different places.

Molecular target: T1, GLP-1R (Homo sapiens, UniProt P43220)
T1 construct: host or cells: GLP-1R CRE-bla CHO-K1 cells
Test: EC20 GLP-1(9-36) PAM cAMP assay: dose response of compound in the presence of fixed concentration of GLP-1(9-36)
Assay type: cell-based
Conditions: GLP-1R CRE-bla CHO-K1 cells, read-out: EC20 GLP-1(9-36) PAM EC50
Outline: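 Positive allosteric modulation read as cAMP accumulation: compound titrations (12 points) combined with an EC20 level of GLP-1(9-36) on CHO-K1 GLP-1R CRE-bla cells, IBMX present, 30 min, 37 °C, pH 7.4 buffer. Luminescence converted to cAMP via standards; non-linear fit gave EC50 and Emax.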

[1] = compound dose response with fixed concentration of GLP-1(9-36)
[2] = dose response of compound in presence of fixed concentration of GLP-1(9-36)

T1 sequence (P43220 24-463): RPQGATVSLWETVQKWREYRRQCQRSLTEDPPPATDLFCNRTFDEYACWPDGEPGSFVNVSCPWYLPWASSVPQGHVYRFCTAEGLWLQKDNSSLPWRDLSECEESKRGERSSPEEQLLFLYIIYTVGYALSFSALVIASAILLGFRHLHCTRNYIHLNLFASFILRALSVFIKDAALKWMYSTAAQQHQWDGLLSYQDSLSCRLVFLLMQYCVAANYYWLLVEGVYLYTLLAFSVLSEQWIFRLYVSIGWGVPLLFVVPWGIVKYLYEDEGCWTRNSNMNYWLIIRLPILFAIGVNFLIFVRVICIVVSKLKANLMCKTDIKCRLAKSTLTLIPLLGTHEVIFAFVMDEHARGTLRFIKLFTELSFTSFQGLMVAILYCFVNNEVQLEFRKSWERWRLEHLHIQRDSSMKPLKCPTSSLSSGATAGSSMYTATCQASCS
T1 sequence (P01275 100-127 partner limits assumed): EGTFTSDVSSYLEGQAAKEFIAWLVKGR

Structure (SMILES) | EC50 [1] | EC50 [2]
CC(C)CCCOc1ccc(-c2cnc(-c3ccc(C[C@H](NC(=O)Cc4csc(C(C)(C)C)n4)C(=O)N4CC(C(=O)O)C4)cc3)nc2)cc1 [Compound 1244] | 2500 to 5000 nM | 
CC(C)(C)c1ccc(C(=O)N[C@@H](Cc2ccc(-c3ncc(-c4ccc([C@H]5CC[C@@H](C)CC5)cc4)cn3)cc2)C(=O)N2CC(C(=O)O)C2)s1 [Compound 1177] |  | < 800 nM
CCCCCCCOc1ccc(-c2cnc(-c3ccc(C[C@H](NC(=O)c4ccc(C(C)(C)C)s4)C(=O)N[C@@H](C(=O)O)[C@@H](O)c4ccccc4)cc3)nc2)cc1 [Compound 667, (2R,3S)-2-((S)-2-(5-(tert-butyl)thiophene-2-carboxamido)-3-(4-(5-(4-(heptyloxy)phenyl)pyrimidin-2-yl)phenyl)propanamido)-3-hydroxy-3-phenylpropanoic acid] |  | 800 to 2500 nM
CCCCc1ccc(C2CN(c3cnc(-c4ccc(C[C@H](NC(=O)c5ccc(C(C)(C)C)s5)C(=O)N5CC(C(=O)O)C5)cc4)nc3)C2)cc1 [Compound 1503] | 800 to 2500 nM | 
C[C@@H](NC(=O)[C@H](Cc1ccc(-c2ncc(-c3ccc([C@H]4CC[C@H](C(C)(C)C)CC4)cc3)cn2)cc1)NC(=O)c1ccc(C(C)(C)C)s1)C(=O)O [Compound 1143] |  | < 800 nM
CC1(C)CCC(c2ccc(-c3cnc(-c4ccc(C[C@H](NC(=O)c5ccc(C(C)(C)C)s5)C(=O)O)cc4)nc3)cc2)CC1 [Compound 1344] | 800 to 2500 nM | 
Cc1cc(-c2cnc(-c3ccc(C[C@H](NC(=O)c4ccc(C(C)(C)C)s4)C(=O)N[C@H](C)C(=O)O)cc3)nc2)ccc1-c1ccccc1 [Compound 1129] |  | 800 to 2500 nM
CC(C)(C)c1ccc(C(=O)N[C@@H](Cc2ccc(-c3ncc(-c4ccc(-c5ccc(C6CC6)cc5)cc4F)cn3)cc2)C(=O)N2CC(C(=O)O)C2)s1 [Compound 1209] | < 800 nM | 
C[C@@H](NC(=O)[C@H](Cc1ccc(-c2ncc(/C=C/c3ccc(Cl)cc3)cn2)cc1)NC(=O)c1ccc(C(C)(C)C)s1)C(=O)O [Compound 1250] | 800 to 2500 nM | 
Cc1cc(-c2cnc(-c3ccc(C[C@H](NC(=O)c4ccc(C(C)(C)C)s4)C(=O)N4CCC[C@H]4C(=O)O)cc3)nc2)ccc1OC(C)C [Compound 1127] |  | 800 to 2500 nM
CCCCCCCOc1ccc(-c2cnc(-c3ccc(C[C@H](NC(=O)c4ccc(C(C)(C)C)s4)C(=O)N4CCC[C@H]4C(=O)NCC(=O)O)cc3)nc2)cc1 [Compound 493] |  | < 800 nM
CCCCCCCOc1ccc(-c2cnc(-c3ccc(C[C@H](NC(=O)c4ccc(O)c(F)c4)C(=O)N4CC[C@H](C(=O)O)C4)cc3)nc2)cc1 [Compound 1096] |  | 800 to 2500 nM
CCCCCCCOc1ccc(-c2cnc(-c3ccc(C[C@H](NC(=O)c4ccc(C(C)(C)CC)cc4)C(=O)N4CC(C(=O)O)C4)cc3)nc2)cc1 [Compound 1121] |  | 800 to 2500 nM
CCCCCCCOc1ccc(-c2cnc(-c3ccc(C[C@H](NC(=O)c4ccc(CC)cc4)C(=O)N4CC[C@H](C(=O)O)C4)cc3)nc2)cc1 [Compound 855] |  | 800 to 2500 nM
CCOc1ccc(-c2cnc(-c3ccc(C[C@H](NC(=O)c4ccc(C(C)(C)C)s4)C(=O)N[C@H](C)C(=O)O)cc3)nc2)cc1 [Compound 731] |  | 2500 to 5000 nM
CCCCCCCOc1ccc(-c2cnc(-c3ccc(C[C@H](NC(=O)c4ccc(C(C)(C)C)cc4)C(=O)N[C@@H](CC(=O)N(C)C)C(=O)O)cc3)nc2)cc1 [Compound 478] |  | < 800 nM
CCc1ccc(/C=C/c2cnc(-c3ccc(C[C@H](NC(=O)c4ccc(C(C)(C)C)s4)C(=O)N[C@H](C)C(=O)O)cc3)nc2)cc1 [Compound 1055] |  | 2500 to 5000 nM
CCCCCCCOc1ccc(-c2cnc(-c3ccc(C[C@H](NC(=O)c4ccc(C(C)(C)C)cc4)C(=O)NC(C(=O)O)c4nc(C)oc4C)cc3)nc2)cc1 (stereo partly drawn) [Compound 488] |  | 800 to 2500 nM

Structure (SMILES) | EC50 [1] | EC50 [2]
CC(C)CCOc1ccc(-c2ccc(-c3cnc(-c4ccc(C[C@H](NC(=O)c5ccc(C(C)(C)C)s5)C(=O)N[C@H](C)C(=O)O)cc4)nc3)cc2)cc1 [Compound 1294] | 800 to 2500 nM | 
CCc1ccc(C(=O)N[C@@H](Cc2ccc(-c3ncc(-c4ccc(OCCCC(C)C)cc4)cn3)cc2)C(=O)N2CC(C(=O)O)C2)cc1 [Compound 1228] | 800 to 2500 nM | 
CCCCCCCOc1ccc(-c2cnc(-c3ccc(C[C@H](NC(=O)c4cccc(C(C)(C)C)c4)C(=O)N4CC(C(=O)O)C4)cc3)nc2)cc1 [Compound 1122] |  | 5000 to 10000 nM
C[C@@H](NC(=O)[C@H](Cc1ccc(-c2ncc(/C=C/c3cccc(C(F)(F)F)c3)cn2)cc1)NC(=O)c1ccc(C(C)(C)C)s1)C(=O)O [Compound 1251] | 5000 to 10000 nM | 
CCCCc1ccc(-c2ccc(-c3cnc(-c4ccc(C[C@H](NC(=O)c5ccc(C(C)(C)C)s5)C(=O)O)cc4)nc3)c(F)c2)cc1 [Compound 1361] | 800 to 2500 nM | 
CCCCCCCOc1ccc(-c2cnc(-c3ccc(C[C@H](NC(=O)c4ccc(C(C)(C)C)s4)C(=O)N[C@@H](Cc4cccnc4)C(=O)O)cc3)nc2)cc1 [Compound 617] |  | < 800 nM
CCC[C@H]1CC[C@H](C2CCN(c3cnc(-c4ccc(C[C@H](NC(=O)c5ccc(C(C)C)s5)C(=O)N5CC(C(=O)O)C5)cc4)nc3)CC2)CC1 [Compound 1534] | < 800 nM | 
CCC[C@H]1CC[C@H](C2CCN(c3cnc(-c4ccc(C[C@H](NC(=O)c5cnc(C(C)(C)C)s5)C(=O)N5CC(C(=O)O)C5)cc4)nc3)CC2)CC1 [Compound 1537] | < 800 nM | 
CCCCCCCOc1ccc(-c2cnc(-c3ccc(C[C@H](NC(=O)c4ccc(C(C)(C)C)s4)C(=O)N4CCC[C@H]4C(=O)N4CC[C@@H](C(=O)O)C4)cc3)nc2)cc1 [Compound 500] |  | 800 to 2500 nM
CCCCCCCOc1ccc(-c2cnc(-c3ccc(C[C@H](NC(=O)c4ccc(CC(C)C)s4)C(=O)N4CCC[C@H]4C(=O)O)cc3)nc2)cc1 [Compound 1080] |  | 800 to 2500 nM
CCc1ccc(CCc2cnc(-c3ccc(C[C@H](NC(=O)c4ccc(C(C)(C)C)s4)C(=O)N[C@H](C)C(=O)O)cc3)nc2)cc1 [Compound 1274] | 2500 to 5000 nM | 
CCCCCCCOc1ccc(-c2cnc(-c3ccc(C[C@H](NC(=O)c4cc5c(s4)CCC(C)C5)C(=O)N[C@H](C)C(=O)O)cc3)nc2)cc1 (stereo partly drawn) [Compound 814] |  | 800 to 2500 nM
CCCCCCCOc1ccc(-c2cnc(-c3ccc(C[C@H](NC(=O)c4ccc(C(C)(C)C)s4)C(=O)NC(C(=O)O)[C@H](C)c4ccccc4)cc3)nc2)cc1 (stereo partly drawn) [Compound 896] |  | 5000 to 10000 nM
COc1ccccc1C1CCN(c2cnc(-c3ccc(C[C@H](NC(=O)c4ccc(C(C)(C)C)s4)C(=O)N4CC(C(=O)O)C4)cc3)nc2)CC1 [Compound 1492] | 800 to 2500 nM | 
Cc1cc(-c2ccc(-c3cnc(-c4ccc(C[C@H](NC(=O)c5ccc(C(C)(C)C)s5)C(=O)N5CC(C(=O)O)C5)cc4)nc3)c(F)c2)ccc1C(F)(F)F [Compound 1225] | < 800 nM | 
CCCCCCCOc1ccc(-c2cnc(-c3ccc(C[C@H](NC(=O)c4ccc(C(C)(C)C)s4)C(=O)N[C@@H](CC(=O)OCc4ccccc4)C(=O)O)cc3)nc2)cc1 [Compound 524, (S)-4-(benzyloxy)-2-((S)-2-(5-(tert-butyl)thiophene-2-carboxamido)-3-(4-(5-(4-(heptyloxy)phenyl)pyrimidin-2-yl)phenyl)propanamido)-4-oxobutanoic acid] |  | < 800 nM
CCCCCCCOc1ccc(-c2cnc(-c3ccc(C[C@H](NC(=O)c4ccc(C(C)C)cc4)C(=O)N4CC[C@H](C(=O)O)C4)cc3)nc2)cc1 [Compound 844] |  | 800 to 2500 nM
CCCCCCCOc1ccc(-c2cnc(-c3ccc(C[C@H](NC(=O)c4ccc(C(C)(C)C)s4)C(=O)NS(=O)(=O)CC)cc3)nc2)cc1 [Compound 420] |  | < 800 nM
